Experiments:
Histamine H4 receptor [1] = target: T1, Histamine H4 receptor (Homo sapiens, UniProt Q9H3N8); conditions: HEK293
[2] = target: Histamine H4 receptor (Rattus norvegicus) (UniProt Q91ZY1); conditions: HEK293
Histamine H4 receptor [3] = target: Histamine H4 receptor (Rattus norvegicus, UniProt Q91ZY1); experiment: Agonist activity at rat histamine H4 receptor expressed in HEK293 cells coexpressing Gqi5 protein assessed as calcium flux by FLIPR assay; type: functional, cell-based
Histamine H4 receptor [4] = target: T1, Histamine H4 receptor; experiment: Agonist activity at human histamine H4 receptor expressed in HEK293 cells coexpressing Gqi5 protein assessed as calcium flux by FLIPR assay relative to histamine; type: functional, cell-based
[5] = target: Histamine H4 receptor (Rattus norvegicus) (UniProt Q91ZY1); experiment: Agonist activity at rat histamine H4 receptor expressed in HEK293 cells coexpressing Gqi5 protein assessed as calcium flux by FLIPR assay relative to histamine; type: functional, cell-based
Histamine H4 receptor [6] = target: T1, Histamine H4 receptor; experiment: Agonist activity at human histamine H4 receptor expressed in HEK293 cells coexpressing Gqi5 protein assessed as calcium flux by FLIPR assay; type: functional, cell-based

Histamine H4 receptor (Rattus norvegicus), sequence (Q91ZY1 whole entry): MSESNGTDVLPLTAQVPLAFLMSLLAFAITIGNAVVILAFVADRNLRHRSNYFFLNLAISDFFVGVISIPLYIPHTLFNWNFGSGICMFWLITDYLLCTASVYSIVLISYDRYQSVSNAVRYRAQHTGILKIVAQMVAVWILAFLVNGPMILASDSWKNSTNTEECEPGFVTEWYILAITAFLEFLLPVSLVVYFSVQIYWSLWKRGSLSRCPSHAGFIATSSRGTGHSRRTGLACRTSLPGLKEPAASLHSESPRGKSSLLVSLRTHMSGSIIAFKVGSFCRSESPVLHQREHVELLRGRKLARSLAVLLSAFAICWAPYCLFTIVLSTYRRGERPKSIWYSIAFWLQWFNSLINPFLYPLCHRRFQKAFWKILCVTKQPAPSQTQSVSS
Histamine H4 receptor (Rattus norvegicus, UniProt Q91ZY1), sequence (Q91ZY1 whole entry): as above

Structure (SMILES) | pKb (Histamine H4 receptor [1]) | pKb [2] | EC50 (Histamine H4 receptor [3]) | Efficacy (Histamine H4 receptor [4]) | Efficacy [5] | EC50 (Histamine H4 receptor [6])
CN1CCN(c2cc(-n3ccccc3=O)nc(N)n2)CC1 | – | – | 14.1 µM | 27% | 33% | 3.89 µM
CN1CCN(c2cc(-n3ccnc3)nc(N)n2)CC1 | – | – | 7.94 µM | 31% | 56% | 2.51 µM
CN1CCN(c2cc(NCc3ccccc3)nc(N)n2)CC1 | – | – | 0.49 µM | 56% | – | 0.0646 µM
CN1CCN(c2cc(C(C)(C)C)nc(Cl)n2)CC1 | – | – | 8.71 µM | 42% | 75% | 4.9 µM

Further lines, results first:

pKb (Histamine H4 receptor [1]) | pKb [2] | EC50 (Histamine H4 receptor [3]) | Efficacy (Histamine H4 receptor [4]) | Efficacy [5] | EC50 (Histamine H4 receptor [6]) | Structure (SMILES)
7.81 | 7.27 | – | – | – | – | CN1CCN(c2cc(-c3cccc4ccccc34)nc(N)n2)CC1
– | – | 18.2 µM | 100% | 88% | 11.5 µM | CN1CCN(c2cc(C(C)(C)C)nc(N(C)C)n2)CC1
5.05 | 5.14 | – | – | – | – | CN1CCN(c2cc(N)cc(-c3ccc(C#N)cc3)n2)CC1

Reference: ChEMBL document CHEMBL1140148, “Structure-activity studies on a series of a 2-aminopyrimidine-containing histamine H4 receptor ligands” (J Med Chem, 2008)
